# Assay results from article PMC7698842, “Lanostane Triterpenoid Metabolites from a Penares sp. Marine Sponge Protect Neuro-2a Cells against Paraquat Neurotoxicity” (Molecules, 2020).
# Tests used:
# [1] = DPPH radical scavenging assay (cell-free); conditions: 30 min, MeOH
# Protocol: The 2,2-diphenyl-1-picryl-hydrazyl-hydrate (DPPH) radical scavenging activity was tested as described previously. The compounds were dissolved in MeOH, and the solutions (120 µL) were dispensed into wells of a 96-well microplate. The DPPH (Sigma-Aldrich, Steinheim, Germany) was dissolved in MeOH at a concentration of 7.5 × 10^−3 M and the solution (30 µL) was added to each well. The concentrations of tested compounds in the mixtures were 10 and 100 µM. Ascorbic acid was used as a positive control. The mixtures were shaken and left for 30 min. The absorbance of the resulting solutions was measured at λ = 520 nm with a MultiscanFC plate reader (Thermo Scientific, Waltham, MA, USA). The concentration scavenging 50% of the DPPH radical (EC50) was calculated for each compound.
# [2] = Cytotoxicity toward Neuro-2a cells (MTT assay); type: cell-based, mouse; conditions: mouse, Neuro-2a neuroblastoma cells, 24 h; for activity at 24 h, 10 µM: Neuro-2a cell viability, read-out: Cytotoxicity (MTT Assay) % of Control at 10 μM; for IC50 at 24 h: Neuro-2a cells
# Protocol: (§1) The cells of mouse neuroblastoma cell line Neuro-2a (ATCC® CCL-131™; American Type Culture Collection, Manassas, VA, USA) were cultured in Dulbecco’s modified Eagle’s medium (DMEM) containing 10% fetal bovine serum (Biolot, St. Petersburg, Russia) and 1% penicillin/streptomycin (Biolot, St. Petersburg, Russia) at 37 °C in a humidified atmosphere with 5% (v/v) CO2. Initially, cells were incubated in cultural flasks until sub-confluent (~80%). For testing, Neuro-2a cells were seeded in 96- or 6-well plates and experiments were started after 24 h.
# (§2) The cells (1 × 10^4 cells/well of a 96-well plate) were incubated with different concentrations of studied compounds during 24 h. After that, cell viability was determined by the MTT (3-(4,5-dimethylthiazol-2-yl)-2,5-diphenyltetrazolium bromide) method according to the manufacturer’s instructions (Sigma-Aldrich, St. Louis, MO, USA). Absorbance of the converted formazan was measured using a Multiskan FC microplate photometer (Thermo Scientific, Waltham, MA, USA) at λ = 570 nm. The results were presented as percent of control data, and concentration of cell viability inhibition on 50% (IC50) was calculated.
# [3] = tested on: PQ-treated Neuro-2a cells; experiment: Propidium iodide straining of PQ-treated Neuro-2a cells (membrane permeability); type: cell-based, mouse; conditions: 24 h; for decrease of fluorescence of PI-straining cells: compound 10 μM pre-incubation, PQ-treated cells
# Protocol: The cells (1 × 10^4 cells/well) were seeded in black 96-well plates before testing. After incubation of the cells with compounds and PQ during 24 h, PI solution (10 μg/mL) was added to each well and the plate was incubated in the dark at 37 °C for 10 min. Cells were washed with phosphate buffer saline (PBS) (BioloT, St.Peterburg, Russia) and fluorescence was measured with a Fluoroskan Ascent plate reader (Thermo Labsystems, Helsinki, Finland) at […]. All manipulations with fluorescent probes were carried out in a darkened room. The results were presented as percent of positive control data.
# [4] = tested on: ROS level in PQ-treated Neuro-2a cells; experiment: ROS level analysis in PQ-treated Neuro-2a cells (H2DCFDA); type: cell-based, mouse; conditions: for concentrations at which ROS content in PQ-treated cells was reduced: tested at 1 and 10 μM
# Protocol: The cells (1 × 10^4 cells/well of a 96-well plate) were incubated with compound solutions (1 and 10 µM) during 1 h. Then, PQ was added to cell suspension to a resulting concentration of 500 µM for incubation during 1 h. Cells incubated without PQ and compounds and with PQ alone were used as positive and negative controls, respectively. The 20 µL of 2,7-dichlorodihydrofluorescein diacetate solution (H2DCFDA, Molecular Probes, Eugene, OR, USA) was added to each well (10 µM, final concentration) and the plate was incubated for an additional 10 min at 37 °C. The intensity of dichlorofluorescin fluorescence was measured with a PHERAstar FS plate reader (BMG Labtech, Ortenberg, Germany) at λex = 485 nm and λem = 518 nm. The data were processed by MARS Data Analysis v. 3.01R2 (BMG Labtech, Ortenberg, Germany). The results were presented as percent of positive control data.
# [5] = tested on: mitochondrial membrane potential in PQ-treated Neuro-2a cells; experiment: Mitochondrial membrane potential detection (TMRM) in PQ-treated Neuro-2a cells; type: cell-based, mouse
# Protocol: The cells (1 × 10^4 cells/well of a 96-well plate) were incubated with compound solutions (1 and 10 µM) during 1 h. Then, PQ was added to cell suspension to a resulting concentration of 500 µM for incubation during 1 h. Cells incubated without PQ and compounds and with PQ alone were used as positive and negative controls, respectively. The tetramethylrhodamine methyl (TMRM) (Sigma-Aldrich, St. Louis, MO, USA) solution at 500 nM was added in each well and cells were incubated for 30 min at 37 °C. The intensity of fluorescence was measured with a PHERAstar FS plate reader (BMG Labtech, Ortenberg, Germany) at λex = 540 nm and λem = 590 nm. The data were processed by MARS Data Analysis v. 3.01R2 (BMG Labtech, Ortenberg, Germany). The results were presented as percent of positive control data.
# [6] = tested on: Hsp70 level in Neuro-2a cells; experiment: Hsp70 level analysis by Western blot in Neuro-2a cells; type: cell-based, mouse; conditions: for increase of Hsp70 level in PQ-treated cells: compound 10 µM 1 h, then PQ 500 µM 24 h
# Protocol: The Hsp70 expression was detected by Western blot analysis. Cell suspensions (1.6 × 10^5 cells/well of a 6-well plate) were seeded and treated with studied compounds at a concentration of 10 µM for 1 h. After that, PQ (500 µM) was added and cells were incubated during 24 h. Cells incubated without PQ and compounds and with PQ alone were used as positive and negative controls, respectively. Cells were washed by cold PBS (BioloT, Russia) twice and lysed by radioimmunoprecipitation assay (RIPA) buffer (BioloT, St. Peterburg, Russia). The amount of proteins was measured by the Bradford method and equal samples (25 µg) were prepared using sample buffer. Proteins were separated with sodium dodecyl sulphate (SDS) electrophoresis in 10% polyacrylamide gel. The electrophoretically separated proteins were transferred onto the polyvinylidene difluoride (PVDF) membrane Whatman (Sigma-Aldrich, St. Louis, MO, USA) using a semi-dry transfer apparatus (Helicon, Moscow, Russia). […] The peroxidase reaction was visualized by an enhanced chemiluminescence (ECL) kit according to the instructions of the manufacturer (Sigma-Aldrich, St. Louis, MO, USA) using the VersaDoc Imaging System (Bio-Rad, Hercules, CA, USA).
# [7] = tested on: PQ-treated Neuro-2a cells; experiment: Neurite outgrowth estimation in PQ-treated Neuro-2a cells; type: cell-based, mouse
# Protocol: Neurite outgrowth was studied as described by Li et al.. Neuro-2a cells were seeded in 6-well plates (1.6 × 10^5 cells/well) in DMEM medium containing 10% fetal bovine serum (Biolot, St. Peterburg, Russia) and 1% penicillin/streptomycin (Invitrogen, Carlsbad, CA, USA). The next day, this growth media was changed with serum-free DMEM media containing 1% penicillin/streptomycin, and cells were treated with studied compounds at a concentration of 10 µM for 1 h. After that, PQ (500 µM) was added and cells were incubated during 24 h. Cells incubated without PQ and compounds and with PQ alone were used as positive and negative controls, respectively.
# For each well, approximately 10 images were acquired randomly by scanning the wells from left to right and top to bottom using the AxioImager A1 microscope (CarlZeiss, Oberkochen, Germany). A total of ten random fields (near 350 cells in each) for each experimental group were scored for neurite outgrowth. The number of neurite-bearing cells and lengths of the individual neurites for each cell were measured using the AxioVision 4.7.1 software (CarlZeiss, Oberkochen, Germany). Length was defined as the straight-line distance from the tip of the neurite to the junction between the cell body and neurite base. In the case of branched neurites, the length of the longest branch was measured from the tip of the neurite to the cell body. In each experimental group, the average length of neurites was calculated, as well as the average number of neurites per one cell.
# [8] = tested on: PQ-treated Neuro-2a cells; experiment: PQ-treated Neuro-2a cell viability (MTT assay); type: cell-based, mouse; conditions: 24 h; for effect on PQ-treated cell viability (MTT assay): compound 1 and 10 µM, PQ 500 µM
# Protocol: as §2
# (§3) The cells (1 × 10^4 cells/well of a 96-well plate) were treated with studied compounds at concentrations of 1 and 10 µM for 1 h and then 500 µM of PQ (Sigma-Aldrich, St. Louis, MO, USA) was added to the neuroblastoma cells. Cells incubated without PQ and compounds and with PQ alone were used as positive and negative controls, respectively. The viability of cells was measured after 24 h using MTT and FDA methods. The results were presented as percent of positive control data.
# [9] = tested on: Neuro-2a cells; experiment: Cytotoxicity toward Neuro-2a cells (MTT assay); type: cell-based, mouse; conditions: Neuro-2a cells, 100 μM, MTT assay
# Protocol: as §1, §2
# [10] = tested on: PQ-treated Neuro-2a cells; experiment: PQ-treated Neuro-2a cell viability (FDA assay); type: cell-based, mouse; conditions: 24 h
# Protocol: A stock solution of the fluorescein diacetate (FDA) (Sigma-Aldrich, St. Louis, MO, USA) in DMSO (1 mg/mL) was prepared. The cells (1 × 10^4 cells/well) were seeded in black 96-well plates before testing. After incubation of the cells with compounds and PQ during 24 h, FDA solution (50 μg/mL) was added to each well and the plate was incubated in the dark at 37 °C for 15 min. Cells were washed with phosphate buffer saline (PBS) (BioloT, S.-Peterburg, Russia) and fluorescence was measured with a Fluoroskan Ascent plate reader (Thermo Labsystems, Helsinki, Finland) at λex = 485 nm and λem = 518 nm. All manipulations with fluorescent probes were carried out in a darkened room. Cell viability was expressed as the percent of control.
# as §3
# [11] = compound 10 µM 1 h, then PQ 500 µM 24 h
# [12] = PQ-treated cells (PQ alone 500 µM)
Compound,EC50 [1],"activity at 24 h, 10 µM [2]",IC50 at 24 h [2],decrease of fluorescence of PI-straining cells [3],increase of Hsp70 level in PQ-treated cells [6],"increase in the average number of neurites per cell [7, 11]",effect on PQ-treated cell viability (MTT assay) [8],concentrations at which ROS content in PQ-treated cells was reduced ([4]; PQ 500 µM 1 h),also measured
"O=C1O[C@H]([C@@H](O)CO)C(O)=C1O [Ascorbic acid, reference compound]",20.5 ± 1.5 µM,,,,,,,,
"CC(=O)O[C@H]1CC[C@@]2(C)[C@@H](C[C@@H]3O[C@]34[C@]23CC[C@]2(C)[C@@H]([C@H](C)CCC=C(C)C)CC[C@@]42C(=O)O3)C1(C)C [Compound 1, 3β-acetoxy-7β,8β-epoxy-5α-lanost-24-en-30,9α-olide]",> 100 µM,92.1 ± 7.1%,85.7 ± 2.4 µM,16%,62%,16%,,,"effect on ROS level in PQ-treated cells ([4]; compound 1 and 10 µM, 1 h pre-treatment, PQ 500 µM 1 h): did not affect ROS level; increase of intensity of TMRM fluorescence (PQ-induced mitochondrial dysfunction diminished) ([5]; compound 10 μM, PQ 500 µM 1 h): 37%; effect on the number of neurite-bearing PQ-treated cells ([7]; compound 10 µM, PQ 500 µM): did not show a statistical effect"
"CC(C)=CCC[C@@H](C)[C@H]1CC[C@]23C(=O)O[C@]4(CC[C@]12C)[C@]31O[C@H]1C[C@H]1C(C)(C)[C@@H](O)CC[C@@]14C [Compound 2, 3β-hydroxy-7β,8β-epoxy-5α-lanost-24-en-30,9α-olide]",> 100 µM,96.9 ± 1.1%,> 100 µM,12%,43%,12%,did not show any effect,reduced ROS content only at a concentration of 10 μM,
"CC(C)=CCC[C@@H](C)[C@H]1CC[C@@]2(C(=O)O)C3=C(CC[C@]12C)[C@@]1(C)CCC(=O)[C@@H](C)[C@@H]1CC3 [Compound 3, 29-nor-penasterone]",> 100 µM,91.1 ± 4.1%,> 100 µM,,26%,17%,did not show any effect,reduced ROS content only at a concentration of 10 μM,"death of cells [9]: 37.4%; effect on PQ-treated cell viability (FDA assay) ([10]; compound 1 and 10 µM, PQ 500 µM): did not show any effect; increase of neurites-bearing cell amount compared to PQ-treated control [7, 11]: 113%"
"N,N-dimethyl-4,4-bipyridinium dichloride [PQ, reference compound]",,,,,,,,,"PQ-treated cell viability, % of control cells (MTT assay) ([8]; PQ alone 500 µM): 45.4%; PQ-treated cell viability, % of control cells (FDA assay) ([10]; PQ alone 500 µM): 62.2%; increase in the number of PI-straining cells ([3]; PQ alone, versus control): 35%; increase of ROS level compared to control cells ([4]; PQ alone 500 µM, within 1 h): 40%; decrease of TMRM fluorescence ([5]; PQ alone, 1 h exposition): 30%; change of Hsp70 level in comparison with control cells ([6]; PQ alone 500 µM, 24 h): half-decrease; average length of neurites, less than control value by ([7]; PQ alone 500 µM, 24 h): 29%; number of neurites per cell, less than control value by ([7]; PQ alone 500 µM, 24 h): 14%; cells with neurites ([7]; PQ alone 500 µM, 24 h, control 30%): 10%; proportion of neurites with a length of 0–4.99 µm in the total number [7, 12]: 11.1%; proportion of neurites with a length of 10.00–14.99 µm in the total number [7, 12]: 16.6%"
